The values below come from ChEMBL document CHEMBL1201862, “PubChem BioAssay data set” (2004).

Usually AC50 stands for the concentration at which the activity in the assay is half-maximal. As usually defined, the IC50 is the point on the concentration scale where inhibition reaches its midpoint. A word on the EC50: it is the concentration at which the effect is half-maximal. By GI50 is commonly meant the concentration giving 50% growth inhibition.

Structures can show the parent of a compound that is named as a salt. The source made the active and inactive calls.

Assay [1] in a line: reduction of Shn3 3'UTR-driven luciferase in osteoblasts – cell-based, Clone20 osteoblasts, firefly luciferase, cherry-picked, dose response (AID 624132).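 Note: firefly luciferase luminescence from reporter carrying the Shn3 3'UTR in osteoblasts.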 It is filed as functional.
The subject of another assay is INS1. Description: INS-1E survival protection against cytokine death – cell-based, luminescence, retest, dose response (AID 449756).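 Note: cell death triggered by IL-1 beta plus TNF-alpha plus IFN-gamma mixture; protective hits raise ATP signal compared with cytokine alone wells.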 It counts as functional. The settings on record: Rattus norvegicus.
Assay [2] can be described thus: non-specific 3'UTR reporter inhibition in Clone20-Shn3RL – cell-based, Renilla luciferase, cherry-picked, counter-screen for Shn3 inhibitor project, dose response (AID 624133). It is filed as functional. On the technique in general: A counterscreen serves to expose hits that act by an unwanted route or on another target.
Another assay deals with Galanin receptor type 3 (Homo sapiens, UniProt O60755). Description: Fluorescence-based cell-based primary high throughput dose response assay to identify antagonists of the Galanin Receptor 3 (GalR3). It counts as functional.
A further assay deals with Galanin receptor type 2 (Homo sapiens, UniProt O43603). The experiment in a line: Dose Response cell-based high-throughput screening assay to identify antagonists of galanin receptor 2 (GALR2). [Related pubchem assays: 828, 866 ]. It counts as functional.
A further assay can be described thus: cells. It is filed as functional, cell-based. The settings on record: HEK-CNG.
Assay [3] can be described thus: loss of viability in HepG2 cells – cell-based, CellTiter-Glo, cherry-picked, cytotoxicity control for Shn3 inhibitor project, dose response (AID 624134). It counts as functional.
A short description of assay [4]: HEK-293T viability loss, compound-treated – cell-based, uHTS hits, cytotoxicity control for B/T-cell NF-kB inhibitor project, dose response (AID 489019).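 Note: IC50 reflects cytotoxicity as loss of cell viability.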 It is filed as functional.
The next assay has as its system Jurkat. Description: blockers of NF-kB activation in T cells – Jurkat, luciferase reporter, luminescence, B- and T-cell, dose response (AID 489004).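 Note: NF-kB luciferase reporter Jurkat cells stimulated with PMA plus ionomycin.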 The settings on record: Homo sapiens. It is filed as functional, cell-based. Background: Reporter assays use an easily measured gene product as a stand-in for the process of interest.
Another assay relates to P388. The experiment in a line: cells. It is filed as functional. The following applies: Mus musculus.
For assay [5], the system named is HEK293. The experiment in a line: membrane integrity loss in HEK cells – cell-based, fluorescence, cytotoxicity control for IDE activator project, dose response (AID 588440).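 Note: cytotoxicity by LDH release measuring loss of membrane integrity.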 It is filed as functional. The following applies: Homo sapiens.
Assay [6] concerns BJ. Description: BJ-TERT-LT-ST fibroblast viability loss – cell-based, RAS-independent, luminescence, dose response (AID 1935).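 Note: BJ fibroblasts immortalized with TERT plus LT and ST oncogenes.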 The settings on record: Homo sapiens. It counts as functional.
The target of assay [7] is T1, Insulin-degrading enzyme (Homo sapiens, UniProt P14735).
T1 sequence (P14735 whole entry): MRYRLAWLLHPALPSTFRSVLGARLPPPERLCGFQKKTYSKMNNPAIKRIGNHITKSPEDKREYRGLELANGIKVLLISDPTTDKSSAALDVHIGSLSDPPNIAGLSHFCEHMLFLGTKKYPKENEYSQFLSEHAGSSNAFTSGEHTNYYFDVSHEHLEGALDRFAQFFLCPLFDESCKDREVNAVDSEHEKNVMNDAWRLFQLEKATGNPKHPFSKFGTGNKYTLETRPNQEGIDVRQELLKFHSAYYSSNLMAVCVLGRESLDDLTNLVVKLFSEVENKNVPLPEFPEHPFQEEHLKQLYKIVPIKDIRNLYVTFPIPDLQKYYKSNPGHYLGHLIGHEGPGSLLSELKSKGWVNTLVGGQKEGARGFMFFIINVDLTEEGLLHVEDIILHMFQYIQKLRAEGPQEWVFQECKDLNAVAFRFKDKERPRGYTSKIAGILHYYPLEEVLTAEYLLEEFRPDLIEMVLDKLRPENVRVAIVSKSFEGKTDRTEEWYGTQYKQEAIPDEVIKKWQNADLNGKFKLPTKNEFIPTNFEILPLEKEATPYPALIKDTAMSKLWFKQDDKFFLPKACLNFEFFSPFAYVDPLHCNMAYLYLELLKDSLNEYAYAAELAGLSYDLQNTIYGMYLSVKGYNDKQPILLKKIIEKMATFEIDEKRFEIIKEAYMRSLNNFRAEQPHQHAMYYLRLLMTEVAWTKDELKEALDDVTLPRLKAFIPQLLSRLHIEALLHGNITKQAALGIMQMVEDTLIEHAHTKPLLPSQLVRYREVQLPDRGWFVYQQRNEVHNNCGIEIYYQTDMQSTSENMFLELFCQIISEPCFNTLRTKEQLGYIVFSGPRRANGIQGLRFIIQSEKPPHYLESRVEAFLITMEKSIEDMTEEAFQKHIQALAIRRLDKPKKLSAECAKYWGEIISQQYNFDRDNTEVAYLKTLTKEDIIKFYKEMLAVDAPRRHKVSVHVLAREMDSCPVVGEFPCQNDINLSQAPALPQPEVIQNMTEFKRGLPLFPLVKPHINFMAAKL
Description: recombinant IDE activation, cell-free – biochemical, fluorescence polarization, counter-screen for IDE activator project, dose response (AID 588681). Background: In fluorescence polarisation assays a small probe gives low polarisation when free and higher when bound to something large.

Assay [8] is described as follows: rise of 4N DNA cells, HeLa – IC50, dose response (AID 1117351). It counts as functional, cell-based.
A further assay addresses ORF 73 (Human herpesvirus 8, UniProt O40947). The experiment in a line: KSHV LANA DNA-binding disruption – biochemical, fluorescence polarization, cherry-picked samples, dose response (AID 504725).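 Note: fluorescence polarization of a labeled DNA duplex reporting LANA DNA binding; potency is for inhibitors that block LANA binding to the DNA.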 Set-up: species or system Human gammaherpesvirus 8.
The subject of assay [9] is BJ. The experiment in a line: growth inhibition of engineered Ras-driven BJ cells – cell-based, alamar blue fluorescence, cherrypicked samples, dose response (AID 2631).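 Note: confirmatory dose-response assay in RAS-dependent BJ fibroblasts engineered with TERT, LT and ST, with cytotoxicity read by fluorescence.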 It counts as functional. The following applies: Homo sapiens.
A further assay has as its system HeLa. Description: viability loss in HeLa cells – cell-based, 24 h, cherry-picked samples, cytotoxicity control, dose response (AID 504726).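 Note: potency for cytotoxicity as loss of luminescence signal.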 The following applies: Homo sapiens. It counts as functional.
A short description of assay [10]: cytotoxicity toward HT-29 cells – cell-based, CellTiter-Glo luminescence, IC50, dose response (AID 1117330). It is filed as functional.
A further assay deals with Keap1/Nrf2 (Homo sapiens, UniProt Q14145). Description: disruptors of Keap1 binding to Nrf2 peptide – biochemical, fluorescence polarization, cherry-picked samples, dose response (AID 588683).
The nature of assay [11]: rise of 2N DNA cells, HeLa – IC50, dose response (AID 1117349). It counts as functional, cell-based.
Assay [12] in a line: HEK-293T viability loss after treatment – luminescence, T-cell screen hits, cytotoxicity control for TCR NF-kB inhibitor project, dose response (AID 489026).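 Note: cells exposed to compound about 14 hours before the viability readout.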 It counts as functional, cell-based.
A short description of assay [13]: RKO cell viability reduction, dose response, CellTiter-Glo luminescence (AID 1117322). It counts as functional.
The nature of assay [14]: CellTiter-Glo luminescence survival assay, SW480 colon tumor line, concentration-response curve, half-maximal inhibitory concentration (AID 1117338). It counts as functional.
The target in assay [15] is UDP-galactopyranose mutase (Mycobacterium tuberculosis, UniProt P9WIQ1). Description: Inhibitors of Mycobacterium tuberculosis UDP-galactopyranose mutase (UGM) enzyme Measured in Biochemical System Using Plate Reader - 2105-02_Inhibitor_Dose_CherryPick_Activity. [Related pubchem assays (depositor defined):AID504439].
Assay [16] has as its target T1, Insulin-degrading enzyme. Description: cellular IDE activation of Abeta substrate cleavage – fluorescence polarization, HEK cells, dose response (AID 588439). It is filed as functional, cell-based.
The subject of assay [17] is BJ. The experiment in a line: cells. It is filed as functional, cell-based. The settings on record: Homo sapiens.
Assay [18] concerns BJ. Description: BJ-TERT fibroblast viability loss – cell-based, RAS-independent, luminescence, dose response (AID 1933). It counts as functional. The following applies: Homo sapiens.
In assay [19] the test system is HEK293. Description: optical interference in Abeta FP readout, dose response, artefact control for IDE activator project, biochemical, fluorescence polarization (AID 588442). It is filed as functional, cell-based. The following applies: Homo sapiens.
Assay [20] can be described thus: DRD fibroblast viability loss – cell-based, non-viral oncogenic, luminescence, dose response (AID 1934). It is filed as functional. The settings on record: Homo sapiens.
The next assay concerns the target Paired box protein Pax-8 (Homo sapiens, UniProt Q06710). Description: PAX8 transcriptional activity inhibition in RMG-I – RMG-I cells, luciferase, cherry-pick, dose response (AID 687027).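 Note: luciferase reporter driven by Pax8 target thyroperoxidase promoter measured by SteadyGlo luminescence.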 It is filed as functional, cell-based.
The subject of the next assay is P388/ADR. Description: cells. The settings on record: Mus musculus. It counts as functional.
A short description of assay [21]: Reduced DLD-1 viability, concentration-response, CellTiter-Glo luminescence (AID 1117352). It counts as functional.
The subject of the next assay is SN12K1. Description: cells. The settings on record: Homo sapiens. It counts as functional.
The nature of assay [22]: cytotoxicity toward HCT116 cells – cell-based, CellTiter-Glo luminescence, IC50, dose response (AID 1117332). It counts as functional. The following applies: HCT-116.
A short description of assay [23]: SNU-C1 cell viability reduction, dose response, CellTiter-Glo luminescence (AID 1117323). It counts as functional, cell-based.
Assay [24] is described as follows: HCT116 cell viability decrease, GSK3B pretreatment – CellTiter-Glo, IC50, dose response (AID 1117339). It is filed as functional. The settings on record: HCT-116.

ORF 73, sequence (O40947 whole entry): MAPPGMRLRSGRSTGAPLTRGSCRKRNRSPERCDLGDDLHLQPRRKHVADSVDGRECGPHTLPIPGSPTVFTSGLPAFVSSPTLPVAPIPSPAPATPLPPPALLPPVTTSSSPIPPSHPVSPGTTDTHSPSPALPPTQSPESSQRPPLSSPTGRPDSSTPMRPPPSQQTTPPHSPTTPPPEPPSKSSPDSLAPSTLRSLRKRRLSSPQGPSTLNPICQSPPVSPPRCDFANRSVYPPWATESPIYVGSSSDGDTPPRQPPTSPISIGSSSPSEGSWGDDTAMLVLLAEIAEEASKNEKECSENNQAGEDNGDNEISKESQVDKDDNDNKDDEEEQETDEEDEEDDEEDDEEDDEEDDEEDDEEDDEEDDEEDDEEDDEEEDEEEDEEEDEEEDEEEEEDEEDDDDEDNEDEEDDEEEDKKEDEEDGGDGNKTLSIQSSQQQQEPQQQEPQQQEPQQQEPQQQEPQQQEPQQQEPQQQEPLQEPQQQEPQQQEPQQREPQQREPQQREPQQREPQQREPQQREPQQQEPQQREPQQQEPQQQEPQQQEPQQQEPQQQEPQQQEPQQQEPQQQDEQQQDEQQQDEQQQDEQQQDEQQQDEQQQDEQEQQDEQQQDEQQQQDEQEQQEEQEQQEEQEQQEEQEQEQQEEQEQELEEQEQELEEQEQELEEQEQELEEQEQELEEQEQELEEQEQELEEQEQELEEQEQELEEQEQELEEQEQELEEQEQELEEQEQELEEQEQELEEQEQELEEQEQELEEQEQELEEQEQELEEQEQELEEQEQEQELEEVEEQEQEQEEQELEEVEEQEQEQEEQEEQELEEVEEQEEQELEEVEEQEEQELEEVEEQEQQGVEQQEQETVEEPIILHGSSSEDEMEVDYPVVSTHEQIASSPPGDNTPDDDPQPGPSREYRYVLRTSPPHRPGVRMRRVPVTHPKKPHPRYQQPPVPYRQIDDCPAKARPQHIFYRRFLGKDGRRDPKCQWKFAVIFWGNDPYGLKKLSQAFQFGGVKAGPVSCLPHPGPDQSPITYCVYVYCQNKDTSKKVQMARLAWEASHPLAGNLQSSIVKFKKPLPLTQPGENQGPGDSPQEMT
Keap1/Nrf2, sequence (Q16236 whole entry): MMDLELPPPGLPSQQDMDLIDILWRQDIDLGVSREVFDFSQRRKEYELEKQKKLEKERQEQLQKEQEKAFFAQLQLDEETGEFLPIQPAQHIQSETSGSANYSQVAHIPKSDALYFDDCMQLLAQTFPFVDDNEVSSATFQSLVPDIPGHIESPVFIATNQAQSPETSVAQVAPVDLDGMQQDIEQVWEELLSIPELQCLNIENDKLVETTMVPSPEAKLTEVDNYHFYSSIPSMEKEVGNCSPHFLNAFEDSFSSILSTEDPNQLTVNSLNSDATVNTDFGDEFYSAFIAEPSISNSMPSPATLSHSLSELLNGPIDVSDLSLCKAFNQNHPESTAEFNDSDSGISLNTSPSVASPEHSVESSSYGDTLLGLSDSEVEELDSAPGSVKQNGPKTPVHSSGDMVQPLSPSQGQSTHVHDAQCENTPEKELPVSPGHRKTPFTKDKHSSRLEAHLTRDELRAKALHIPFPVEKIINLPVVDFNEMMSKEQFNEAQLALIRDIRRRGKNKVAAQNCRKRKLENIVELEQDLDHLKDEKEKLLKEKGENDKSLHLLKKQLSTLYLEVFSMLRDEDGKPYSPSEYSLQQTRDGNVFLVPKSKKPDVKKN
Keap1/Nrf2, sequence (Q14145 whole entry): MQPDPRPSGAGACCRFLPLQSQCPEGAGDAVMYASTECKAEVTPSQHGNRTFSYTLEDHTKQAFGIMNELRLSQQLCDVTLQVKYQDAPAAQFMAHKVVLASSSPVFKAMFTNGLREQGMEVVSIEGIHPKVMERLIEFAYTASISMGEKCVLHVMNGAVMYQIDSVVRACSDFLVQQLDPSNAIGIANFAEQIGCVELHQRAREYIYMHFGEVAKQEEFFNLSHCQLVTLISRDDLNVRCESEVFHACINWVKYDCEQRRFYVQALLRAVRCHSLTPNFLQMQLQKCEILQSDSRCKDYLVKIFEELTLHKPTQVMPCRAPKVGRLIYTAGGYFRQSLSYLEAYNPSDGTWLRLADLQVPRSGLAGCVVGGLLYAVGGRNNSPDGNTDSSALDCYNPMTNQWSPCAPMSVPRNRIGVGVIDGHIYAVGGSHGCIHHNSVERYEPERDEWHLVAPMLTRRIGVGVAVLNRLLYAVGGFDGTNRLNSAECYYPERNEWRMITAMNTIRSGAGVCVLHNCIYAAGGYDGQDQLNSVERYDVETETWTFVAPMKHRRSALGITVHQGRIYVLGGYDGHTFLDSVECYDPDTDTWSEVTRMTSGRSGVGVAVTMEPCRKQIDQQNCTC
Galanin receptor type 2, sequence (O43603 whole entry): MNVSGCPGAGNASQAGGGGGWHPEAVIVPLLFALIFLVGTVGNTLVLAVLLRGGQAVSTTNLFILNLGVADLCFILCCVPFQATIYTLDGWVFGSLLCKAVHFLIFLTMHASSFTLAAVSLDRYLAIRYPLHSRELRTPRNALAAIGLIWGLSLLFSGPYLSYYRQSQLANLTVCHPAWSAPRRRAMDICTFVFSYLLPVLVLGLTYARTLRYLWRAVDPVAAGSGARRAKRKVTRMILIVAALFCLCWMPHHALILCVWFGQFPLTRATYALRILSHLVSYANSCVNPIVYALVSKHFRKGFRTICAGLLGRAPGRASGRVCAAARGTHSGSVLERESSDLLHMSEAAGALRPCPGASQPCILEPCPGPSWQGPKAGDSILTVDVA
Paired box protein Pax-8, sequence (Q06710 whole entry): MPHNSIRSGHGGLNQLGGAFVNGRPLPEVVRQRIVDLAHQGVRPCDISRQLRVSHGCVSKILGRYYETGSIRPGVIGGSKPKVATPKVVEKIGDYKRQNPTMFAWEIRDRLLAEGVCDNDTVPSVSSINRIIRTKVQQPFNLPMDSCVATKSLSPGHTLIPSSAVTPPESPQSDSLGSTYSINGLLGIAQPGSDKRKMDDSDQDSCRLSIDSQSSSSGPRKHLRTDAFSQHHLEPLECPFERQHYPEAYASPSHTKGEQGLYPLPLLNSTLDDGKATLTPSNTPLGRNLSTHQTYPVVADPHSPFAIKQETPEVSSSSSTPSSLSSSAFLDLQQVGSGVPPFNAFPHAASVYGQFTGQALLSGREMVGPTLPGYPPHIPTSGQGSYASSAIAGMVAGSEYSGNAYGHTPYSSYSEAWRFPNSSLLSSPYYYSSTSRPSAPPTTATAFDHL
Galanin receptor type 3, sequence (O60755 whole entry): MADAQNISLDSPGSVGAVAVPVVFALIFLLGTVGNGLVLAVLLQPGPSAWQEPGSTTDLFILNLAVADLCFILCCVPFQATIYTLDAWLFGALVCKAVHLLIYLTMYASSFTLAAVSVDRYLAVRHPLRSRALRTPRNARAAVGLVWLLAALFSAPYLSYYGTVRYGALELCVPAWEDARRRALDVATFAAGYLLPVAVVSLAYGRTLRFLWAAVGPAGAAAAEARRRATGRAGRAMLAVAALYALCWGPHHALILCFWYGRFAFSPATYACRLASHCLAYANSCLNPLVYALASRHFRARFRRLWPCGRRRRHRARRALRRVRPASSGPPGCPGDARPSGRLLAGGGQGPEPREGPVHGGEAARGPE
UDP-galactopyranose mutase, sequence (P9WIQ1 whole entry): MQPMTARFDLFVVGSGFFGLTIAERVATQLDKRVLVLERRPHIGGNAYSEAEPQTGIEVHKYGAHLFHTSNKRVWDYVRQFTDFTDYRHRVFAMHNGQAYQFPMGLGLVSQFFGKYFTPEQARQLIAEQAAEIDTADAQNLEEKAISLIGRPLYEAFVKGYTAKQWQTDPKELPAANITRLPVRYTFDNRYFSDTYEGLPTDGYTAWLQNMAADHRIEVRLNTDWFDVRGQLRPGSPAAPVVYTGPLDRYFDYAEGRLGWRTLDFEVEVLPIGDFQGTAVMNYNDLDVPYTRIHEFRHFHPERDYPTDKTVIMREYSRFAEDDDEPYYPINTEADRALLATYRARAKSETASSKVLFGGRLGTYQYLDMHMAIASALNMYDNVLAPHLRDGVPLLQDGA

Regarding `COc1ccc(CCNc2c(C)c(C)nc3ncnn23)cc1`, the concentration at half-maximal activity (AC50) in assay [1] was 565 nM (active); in the assay on INS1, 2570 nM (active); in assay [2], < 260 nM (active); in assay [3], 25600 nM (active). The concentration for half-maximal inhibition (IC50) on Galanin receptor type 3 is 1310 nM (active); at Galanin receptor type 2, > 42000 nM (not active); in [4] it was > 80000 nM (inactive); in the assay with Jurkat it was > 80000 nM (inactive). Also, in the assay “cells”, the EC50 was > 29900 nM (inactive).

With `CC[C@@]1(O)C(=O)OCc2c1cc1n(c2=O)Cc2cc3c(CN(C)C)c(O)ccc3nc2-1` [TOPOTECAN HYDROCHLORIDE], the figures for the GI50 in the assay on P388, in the assay on P388/ADR and in the assay on SN12K1 were 29 nM (active), 136 nM (active) and 26.7 nM (active), respectively. In addition, the IC50 in the assay on HEK293 [5] was > 89200 nM (inactive); in assay [8], > 10000 nM (inactive); in assay [10], 24.6 nM (active); in assay [11], 13.6 nM (active); in assay [12], > 80000 nM (inactive); in assay [13], 34.2 nM (active). Also, the concentration for half-maximal inhibition (IC50) in assay [14] was 233 nM (active); in [21], 177 nM (active); in assay [22], 34.1 nM (active); in assay [23] it was 301 nM (active); in assay [24] it was 1.44 nM (active). The EC50 with BJ [6] is 159 nM (active); at Insulin-degrading enzyme [7] it was > 54700 nM (inactive); with BJ [9] it was 19.8 nM (active); at Insulin-degrading enzyme [16], > 54700 nM (inactive); in the assay with BJ [17], 246 nM (active); with BJ [18], 11300 nM (active). Also, the figures for the EC50 (in the assay with HEK293 [19]; in assay [20]) were > 54700 nM (inactive) and 549 nM (active), respectively. Further, the AC50 on ORF 73 is 2150 nM (active); in the assay with HeLa it was 17100 nM (active); at Keap1/Nrf2, 3700 nM (active); in assay [15] it was 6860 nM (active); on Paired box protein Pax-8, < 260 nM (active).
